{"source": "patent US20230059747A1", "about": "“A COOLING PREPARATION” (SYMRISE AG, priority 2019, published 2023)", "key": {"rat eyes": {"system": "rat eyes", "details": "cited from earlier work"}, "[1]": {"system": "panel of 5 experienced testers", "assay": "Long lasting cooling sensation: panel evaluation of toothpaste compositions", "format": "in vivo, human", "details": "added to standard toothpaste", "experimental": "Phenylalkennals and homovanillic acid esters were added alone and in combination to a standard toothpaste composition. A panel of 5 experienced testers evaluated the compositions with regard to initial cooling effect during brushing, directly after brushing and the long last effect after 5 and after 10 minutes. The evaluation was done according to a score card from 1=almost no cooling effect to 10=strong cooling sensation. Example 1 is according to the invention, examples C1 to C3 serve for comparison."}}}
{"smiles": "CCCOC(=O)Cc1ccc(O)c(OC)c1", "note": "[II-17, Propyl-2-(4-hydroxy-3-methoxyphenyl) acetate]", "values": [{"measurement": "Pain sensation in rat eyes (assessment in words)", "setting": "rat eyes", "value": "active"}]}
{"smiles": "CCCCCCCCCCCCOC(=O)Cc1ccc(O)c(OC)c1", "note": "[dodecyl ester of homovanillic acid]", "values": [{"measurement": "Pain sensation in rat eyes (assessment in words)", "setting": "rat eyes", "value": "active"}]}
{"smiles": "CCCCCCCCCOC(=O)Cc1ccc(O)c(OC)c1", "note": "[nonyl ester of homovanillic acid]", "values": [{"measurement": "Pain sensation in rat eyes (assessment in words)", "setting": "rat eyes", "value": "active"}]}
{"smiles": "COC(=O)Cc1ccc(O)c(OC)c1", "note": "[methyl ester of homovanillic acid]", "values": [{"measurement": "Pain sensation in rat eyes (assessment in words)", "setting": "rat eyes", "value": "active"}]}
{"smiles": "CCCCCCCCOC(=O)Cc1ccc(O)c(OC)c1", "note": "[octyl ester of homovanillic acid]", "values": [{"measurement": "Pain sensation in rat eyes (assessment in words)", "setting": "rat eyes", "value": "active"}]}
{"smiles": "C/C=C(/C=O)c1ccccc1", "note": "[Phenylbutenal, 2-Phenyl-but-2-enal]", "values": [{"measurement": "Cooling sensation during and directly after brushing (in words)", "setting": "[1]", "value": "improves the cooling sensation during and directly after brushing"}, {"measurement": "Long lasting cooling sensation after 5 and after 10 minutes (in words)", "setting": "[1]", "value": "does not have any long lasting effect"}]}
